{"source": "paper PMC6931124", "about": "“NPY1R-targeted peptide-mediated delivery of a dual PPARα/γ agonist to adipocytes enhances adipogenesis and prevents diabetes progression” (Molecular Metabolism, 2019)", "origin": "cited, not measured here", "tested_on": "12-week-old db/db mice", "settings": "ref [100], cited from earlier work", "source_text": "In contradiction to previous tesa in vivo studies, no major improvements in hyperglycemia (serum HbA1C) and serum insulin levels were detected in the treated mice compared to the untreated animals. […] No major changes in the total serum glucose occurred and the insulin levels remained unchanged as the mice adapted to the amount of glucose in their blood. An additional ...", "data": [{"smiles": "COc1ccc(OC(=O)N(CC(=O)O)Cc2ccc(OCCc3nc(-c4ccccc4)oc3C)cc2)cc1", "note": "[muraglitazar]", "values": [{"measurement": "control of glucose and insulin levels, 2–4 weeks", "setting": "2–4 weeks", "value": "treatment for 2–4 weeks did"}, {"measurement": "control of glucose and insulin levels, one week", "setting": "one week", "value": "did not lead to significant effects"}]}]}
